Laboratory results: ChEMBL document CHEMBL1130615, “Synthesis, DNA-damaging and cytotoxic properties of novel topoisomerase II-directed bisantrene analogues” (Bioorg Med Chem Lett, 1998)
pIC50: −log10 of the molar value.

Columns and labels:
A2780 = assay: Cell cytotoxicity was determined against human ovarian cancer (A2780) cell line; format: functional, cell-based
[1] = biological target: T1, DNA topoisomerase II (Homo sapiens) (UniProt P11388+Q02880); assay: Percent of DNA remaining uncut after incubation with Topoisomerase II at 1 uM concentration; format: protein assay
[2] = biological target: T1, DNA topoisomerase II (Homo sapiens); assay: Percent of DNA remaining uncut after incubation with Topoisomerase II at 10 uM concentration; format: protein assay
[3] = biological target: T1, DNA topoisomerase II (Homo sapiens); assay: Percent of DNA remaining uncut after incubation with Topoisomerase II at 0.1 uM concentration; format: protein assay
HL-60 = assay: Cell cytotoxicity was determined against human promyelocytic leukemia (HL60) cell line; format: functional, cell-based

Uncut DNA [1]	Uncut DNA [2]	Uncut DNA [3]	Structure (SMILES)	pIC50 (A2780)	pIC50 (HL-60)
30%	11%	41%	C(=N\NC1=NCCN1)/c1c2ccccc2cc2ccccc12	4.42	4.13
38%	25%	51%	C(=N\NC1=NCCN1)/c1c2ccccc2nc2ccccc12	4.55	4.32

Further lines, the compound ahead of its results:

Structure (SMILES)	Uncut DNA [1]	Uncut DNA [2]	Uncut DNA [3]	pIC50 (A2780)	pIC50 (HL-60)
C(=N\NC1=NCCN1)/c1cccc2cc3ccccc3cc12	48%	20%	56%	4.73	4.64
COc1cc(NS(C)(=O)=O)ccc1Nc1c2ccccc2nc2ccccc12 [AMSACRINE]	4%	1%	12%	6.46	6.40
C(=N\NC1=NCCN1)/c1ccc(/C=N/NC2=NCCN2)c2cc3ccccc3cc12	103%	95%	54%	5.32	4.95
C(=N\NC1=NCCN1)/c1c2ccccc2c(/C=N/NC2=NCCN2)c2ccccc12 [BISANTRENE]	46%	57%	14%	6.47	6.52
